Experimental data as given in PubChem BioAssay AID624404 (Broad Institute, 2012).
Results filed as inconclusive are left out.

What follows are molecules tested on D54 LucT luciferase reporter counterscreen, luminescence, 24 h (assay: reporter signal increase, D54 LucT cells – cell-based, luminescence, cherry pick, counter-screen for N-linked glycosylation inhibitor project, dose response (AID 624404)).

SMILES	AC35
CC(=O)c1c(C)[nH]c(C(=O)Nc2nccs2)c1C	0.379 µM
Nc1c2ccccc2nc2ccccc12	4.9 µM
COc1ccc(CC(=O)N(Cc2ccccc2)c2ccc(C)cc2)cc1S(=O)(=O)N1CCOCC1	2.5 µM
Cc1ccc(Sc2c(CO)c(-c3ccccc3)nn2C)cc1	0.166 µM
COc1ccc(Nc2nc(-c3sc(C)nc3C)cs2)c(OC)c1	0.075 µM
Cc1nnc2n(c1=O)N=C(c1ccc(Cl)cc1)CS2	0.0335 µM
CC(NC(=O)c1ccc2ccccc2n1)c1ccc(S(N)(=O)=O)cc1 (stereo not given)	0.977 µM
COc1ccc(/C=N/NC(=O)c2ccccc2OCc2ccccc2)c(OC)c1	1.6 µM
CCc1ccc(OCC(=O)Nc2ccncc2)c(Br)c1	0.598 µM
Cc1ccc(N2C(=O)Nc3ccccc3C2(O)C(=O)N2CCN(c3ccccn3)CC2)cc1C (stereo not given)	0.375 µM
CC(C)(C)c1ccc(OCc2ccc(C(=O)N3CCOCC3)o2)cc1	1.46 µM
COc1ccccc1NS(=O)(=O)c1ccc(-c2cc(C)no2)s1	18.3 µM
COc1ccc(OC)c(Nc2nc(-c3c(C)nc4ncccn34)cs2)c1	1.1 µM
O=c1cc(-c2ccccc2)[nH]c2cc(F)ccc12	2.38 µM
CCOc1cc(-c2c(C#N)c(N)nc3c2CCc2ccccc2-3)ccc1O	3.85 µM
Cc1ccc(S(=O)(=O)c2cc3c(=O)n4ccccc4nc3n(CCc3ccccc3)c2=N)cc1	0.0759 µM
COc1cc(Nc2c3ccccc3nc3ccccc23)cc(OC)c1OC	4.16 µM
COc1cccc(C(=O)Nc2sc3c(c2C#N)CCN(C(C)=O)C3)c1	0.0635 µM
COc1ccccc1CCC(=O)Nc1ccc2c(c1)c(=O)n(C)n2-c1cccs1	2.33 µM
COc1cc(C(=O)Nc2ccc3c(c2)nc(C)n3C)cc(OC)c1OC	1.13 µM
O=c1cc(-c2ccccc2)[nH]c2ccccc12	2.48 µM
COc1cc(/C=C2\SC(=S)N(CCC(=O)N3CCCCC3)C2=O)cc(OC)c1OC	3.44 µM

SMILES	AC35
C[C@H](CO)N1C[C@H](C)[C@@H](CN(C)S(=O)(=O)c2ccccc2)Oc2c(NC(=O)Cc3ccccc3)cccc2C1=O	2.24 µM
COc1ccc(/C=N/NC(=O)c2sccc2OCc2ccc(F)cc2)cc1OC	0.952 µM
CCOC(=O)c1[nH]c(C)c(C(=O)Nc2cc(Cl)ccc2C)c1C	2.24 µM
O=C(c1ccc2ncsc2c1)N1CCN(c2cccc(C(F)(F)F)c2)CC1	0.629 µM
CCC(c1nc2ccccc2c(=O)n1-c1nc2ccccc2s1)N1C(=O)c2ccccc2C1=O (stereo not given)	0.74 µM
CCNc1oc(/C=C/c2ccc(OCC)cc2)nc1C#N	0.94 µM
Cc1ccc(Nc2nc(N)nc(CN3CCN(Cc4ccccc4)CC3)n2)cc1Cl	0.107 µM
CCOC(=O)c1c(C)[nH]c(-c2csc(N)n2)c1C	0.787 µM
Cc1ccc2nsnc2c1NC(=O)c1ccc(-c2cc(Cl)ccc2Cl)o1	1.55 µM
COc1ccccc1-c1csc(C(NC(C)=O)c2cccc(F)c2)n1 (stereo not given)	0.59 µM
COc1cc(NC(C(=O)Nc2cccc(C(C)=O)c2)c2ccccc2)cc(OC)c1OC (stereo not given)	0.00556 µM
O=C(CCl)Nc1cc(S(=O)(=O)N2CCCCCC2)ccc1Cl	1.16 µM
Cc1cc(NCCN2CCOCC2)c2ccc3ccccc3c2n1	0.0178 µM
Cc1c2cnccc2c(C)c2c1oc1ccccc12	3.32 µM
CC(=O)N1CCc2c(sc(NC(=O)c3ccc4c(c3)OCCO4)c2C#N)C1	1.52 µM
O=c1cc(N2CCN(c3ccccc3Cl)CC2)[nH]c(=O)n1Cc1ccc(F)cc1	3.26 µM
CCN(CC)CCNC(=O)c1cc2c(=O)n(C)c3ccccc3c2s1	3.55 µM
COc1ccccc1N1CC(O)=C(c2nc3ccccc3c(=O)[nH]2)C1=N	5.72 µM
CC(CC(=O)Nc1ccc2c(c1)c(=O)n(C)n2-c1cccs1)c1ccccc1 (stereo not given)	7.42 µM
CC(Nc1nc(-c2ccccc2O)nc2ccccc12)c1ccccc1 (stereo not given)	0.0395 µM
Cc1ccc(CC(=O)NCc2ccc(F)cc2)cc1	4.27 µM
O=C(N/N=C/c1ccco1)c1cc(-c2ccncc2)nc2ccccc12	7.16 µM

SMILES	AC35
Cc1ccc(-c2nn3c(C)nnc3c3ccccc23)cc1S(=O)(=O)N(C)CCO	0.599 µM
O=C(c1cn(Cc2ccccc2)nc1-c1ccccc1)N1CCN(c2ccccn2)CC1	0.984 µM
Cc1cc(C)c2c(N)c3cccc(C)c3nc2n1	5.82 µM
N#Cc1c(NC(=O)/C=C/c2ccco2)sc2c1CCCC2	0.115 µM
C#CCCOC(=O)N1C2=NC(C(=O)OC)=C(C(=O)OC)[C@@H]3N(C)c4ccccc4[C@]23C[C@H]1C(=O)OC	0.934 µM
CCOC(=O)c1c(C)c(C(=O)Nc2cc(F)ccc2F)c(C)n1C	3.02 µM
O=C(C=Cc1ccccc1F)c1ccccc1	0.199 µM
CC(CCc1ccco1)NC(=O)CCc1nnc2ccc(NCc3ccc(Cl)cc3)nn12 (stereo not given)	1.58 µM
Cc1ccc2nc(SCc3nnc(-c4ccccc4[N+](=O)[O-])o3)c(C#N)cc2c1	1.3 µM
CCN(CC)c1ccc(/C=N/NC(=O)c2cnccn2)cc1	0.0537 µM
Cn1c(=O)cc(OCCCC(=O)Nc2ccc3c(c2)OCCO3)c2ccccc21	0.353 µM
COC(=O)Nc1nc2ccc(-c3n[nH]c(=O)c4ccccc34)cc2[nH]1	0.282 µM
COc1ccc2nc3ccccc3nc2c1NC(=O)c1ccccc1Cl	17.9 µM
Cc1ccc(C(=O)Nc2ccc(C(=O)/C=C/c3cccs3)cc2)cc1	0.709 µM
COc1ccc(CC(=O)N(Cc2ccccc2)c2ccc(C)cc2)cc1OC	1.04 µM
O=C(NCCCn1ccnc1)c1cc(-c2cccs2)on1	2.02 µM
O=C(CSc1nnc(-c2cc3ccccc3cc2O)n1Cc1ccco1)N1CCc2ccccc2C1	1.28 µM
COc1ccc(C(=O)/C=C/c2ccc(OC)c(O)c2)c(F)c1	0.219 µM
COc1ccc(Nc2oc(-c3ccc(Cl)cc3)nc2C#N)cc1	0.202 µM
CC(=O)Nc1ccc(C(=O)N/N=C/c2ccccc2OCc2ccccc2)cc1	4.36 µM
Cc1ccc(C(=O)N/C(=C\c2ccco2)C(=O)NCCc2c[nH]c3ccccc23)cc1	1.74 µM
C[C@@H](NC(=O)c1nc[nH]c1C(=O)N1CCN(c2ccccc2)CC1)c1ccccc1	1.83 µM

SMILES	AC35
COc1cccc(C2=NOC(C(=O)NCc3ccc(F)cc3)C2)c1 (stereo not given)	4.17 µM
CCCC(=O)Nc1nc2ccc(NC(=O)c3c(F)c(F)c(OC)c(F)c3F)cc2s1	2.27 µM
Cc1cc(C)cc(-n2c3ccc(NC(=O)Cc4cccc5ccccc45)cc3c(=O)n2C)c1	5.01 µM
O=C(c1cccc(Oc2ccccc2)c1)N1CCN(c2ccccn2)CC1	2.96 µM
COc1ccc(OC)c(-c2cc(-c3cccnc3)nc(N)c2C#N)c1	0.227 µM
COc1cc(/C=C/C(=O)OCC(=O)NCc2ccc(F)cc2)ccc1O	0.0881 µM
CC(C)(C)OC(=O)[C@H](Cc1ccccc1)NC(=O)c1nc[nH]c1C(=O)N1CCc2ccccc2C1	2.55 µM
Cc1cc(C)cc(N=Cc2ccc([N+](=O)[O-])s2)c1	0.724 µM
Cn1c(=O)[nH]c(=O)c2c1nc(SCC(N)=O)n2Cc1cccc(Br)c1	0.421 µM
CCOc1cc(C)nc(NCc2ccccc2)n1	5.19 µM
Cc1ccnc(NC(=O)CCCOc2cc(=O)n(C)c3ccccc23)c1	3.22 µM
COc1ccc2c(c1)[C@H]1[C@H](CO2)[C@H](c2ccccc2)[C@]2(C)C(=O)Nc3cc(F)ccc3C(=O)N12	0.326 µM
CC(=O)c1ccc(OCC(O)CN2CCN(CCN3C(=O)c4cccc5cccc(c45)C3=O)CC2)cc1 (stereo not given)	4.42 µM
COC(=O)c1cn(C(=O)c2cccc3ccccc23)c2ccccc12	0.284 µM
O=C1c2ccccc2C(=O)N1Cc1cnc(N2CCN(c3ccccc3)CC2)s1	2.89 µM
COc1cccc(N2CCN(C(=O)c3[nH]c(C)c(C(C)=O)c3C)CC2)c1	4.89 µM
O=C(N/N=C/c1ccc(Cl)cc1)c1sccc1OCc1ccc(F)cc1	0.514 µM
COc1ccccc1NS(=O)(=O)c1ccc(C(=O)Nc2ncccc2O)cc1	8.86 µM
CC(=O)Nc1ccc(/C=C/C(=O)c2ccc3c(c2)OCCO3)cc1	2.88 µM
Cc1ccc2c(c1)C(=O)N1[C@H]3c4cc(C)ccc4OC[C@@H]3[C@H](c3ccccc3)[C@]1(C)C(=O)N2	0.499 µM
C/C(=N\NC(=O)c1c(Cl)c(C)nn1C)c1ccc(NC(=O)C2CCC2)cc1	0.475 µM
O=C(COc1ccccc1)Nc1cccc(-c2cn3cccnc3n2)c1	1.08 µM

SMILES	AC35
COc1cccc(NC(=O)CCCOc2cc(=O)n(C)c3ccccc23)c1	4.63 µM
COc1ccc2[nH]c(C(=O)N3CCN(Cc4ccccc4)CC3)cc2c1OC	2.98 µM
CN1C(=O)CSc2ccc(NC(=O)Nc3ccccn3)cc21	0.828 µM
COc1ccc(-n2c(NNC(C)=O)nc3sc4c(c3c2=O)CCCC4)cc1	1.86 µM
COc1ccc(S(=O)(=O)Nc2ccc3c(c2)n(C)c(=O)n3C)cc1OC	0.104 µM
COc1ccc2c(c1)OC[C@H]1[C@H]2N2C(=O)c3cc(Cl)ccc3NC(=O)[C@@]2(C)[C@H]1c1ccccc1	0.996 µM
COc1cc(OC)c(N2CC(C(=O)Nc3cc(Cl)ccc3N3CCOCC3)CC2=O)cc1Cl (stereo not given)	1.26 µM
COC(=O)c1cc(=O)n(-c2ccc(F)cc2)c(=Nc2ccc(F)cc2)s1	0.0251 µM
CCOC(=O)c1c(NC(=O)c2cc3n(n2)C(C(F)(F)F)CC(c2cccs2)N3)sc(C)c1C (stereo not given)	5.36 µM
COc1ccc(Nc2nc(N(C)c3ccccc3)nc(N)c2[N+](=O)[O-])cc1	0.171 µM
CCn1c(=S)[nH]c2cc(S(=O)(=O)N3CCCCC3)ccc21	1.25 µM
COc1ccccc1N=CC1=C(O)CC(c2ccccc2)CC1=O (stereo not given)	0.173 µM
COc1ccc(CCNC(=O)c2cc(-c3ccco3)on2)cc1OC	15 µM
COc1ccc(Nc2nc3cc(-c4sccc4C)sc3c(=O)n2C)cc1OC	0.104 µM
CC(Nc1nc(-c2cccnc2)nc2ccccc12)c1ccc(F)cc1 (stereo not given)	3.45 µM
COc1cc(-c2cc3nc(NCCc4ccncc4)ccn3n2)cc(OC)c1OC	0.806 µM
COc1ccc2c(c1)[C@H]1[C@H](CO2)[C@H](c2ccccc2)[C@]2(C)C(=O)Nc3ccccc3C(=O)N12	0.353 µM
COc1ccc(S(=O)(=O)NCc2ccccn2)cc1NC(=O)c1ccccc1	0.834 µM
Cc1noc(C)c1-c1ccc(C(=O)NCCc2ccccc2)c2occc12	2.77 µM
O=C1NC[C@H](Cc2ccccc2)N(C[C@H]2CCCN2C[C@H](Cc2ccccc2)N2C[C@H](Cc3ccc(O)cc3)N(CCc3ccccc3)C(=O)C2=O)C1=O	3.77 µM
Cn1c(=O)n(C)c2cc(NS(=O)(=O)c3ccc(F)cc3)ccc21	1.24 µM
COc1cccc(C(NC(C)=O)c2nc(-c3ccccc3OC)cs2)c1 (stereo not given)	0.0933 µM
